Tested on: Rabbit Psoas myofibrils (skeletal myosin ATPase)
Test: Myofibril ATPase assay, rabbit psoas (skeletal) myofibrils
Type: biochemical
Settings: Y75 value (no ‡ mark); rabbit psoas myofibrils
Method in brief: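 Readout: A340 decline from NADH oxidation, PK/LDH-coupled to ADP release; kinetic reads over 75 min. Buffer: pCa (PIPES, CaCl2, EGTA), pH 7.0. Linear-regression slopes vs vehicle, 4PL fit; reported as concentration giving 75% (Y75) or 125% (Y125) of vehicle activity.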

Row | Compound | Skeletal EC25 [nM]
1 | Cc1c(CC(=O)N[C@H](C)c2cnc(C#N)nc2)c(=O)[nH]c2ccc(F)cc12 [compound 1100] | 530
2 | C[C@H](NC(=O)C(F)(F)c1cc2cc(F)ccc2[nH]c1=O)c1cc(C#N)ccn1 (single isomer, unassigned) [compound 2574] | 100000
3 | Cc1c(CC(=O)N[C@@H](C)c2ccc(C#N)cn2)c(=O)[nH]c2ccc(F)c(F)c12 [compound 46] | 20
4 | Cc1c(CC(=O)N[C@@H](C)c2ccc(F)cc2F)c(=O)[nH]c2ccc(F)c(C(F)(F)F)c12 [compound 96] | 10
5 | Cc1c(CC(=O)N[C@@H](C)c2ccc(C#N)cn2)c(=O)[nH]c2ccc(F)cc12 [compound 1128] | 90
6 | Cc1c(C2(C(=O)N[C@@H]3CCc4cc(C#N)cnc43)CC2)c(=O)[nH]c2ccc(F)cc12 (single isomer, unassigned) [compound 2503] | 100000
7 | Cc1c(CC(=O)N[C@H](C)c2ccc(C#N)cn2)c(=O)[nH]c2cccc(F)c12 [compound 53] | 310
8 | C[C@H](NC(=O)Cc1cc2ccccc2[nH]c1=O)c1ccc(F)cc1F [compound 137] | 190
9 | Cc1c(CC(=O)N[C@@H](C)c2ccc(C#N)cn2)c(=O)[nH]c2ccc(F)c(C3CC3)c12 [compound 24] | 40
10 | C[C@H](NC(=O)Cc1cc2c(F)c(F)ccc2[nH]c1=O)c1ncc(C#N)cn1 (single isomer, unassigned) [compound 2072] | 350
11 | C[C@@H](NC(=O)Cc1c(C2CC2)c2c(F)cccc2[nH]c1=O)c1ncc(C#N)cc1F [compound 1143] | 1780
12 | C[C@@H](NC(=O)C(F)(F)c1cc2cc(F)ccc2[nH]c1=O)c1nccc(C#N)n1 (single isomer, unassigned) [compound 2559] | 100000
13 | Cc1c(CC(=O)N[C@H](C)c2ccc(C#N)cn2)c(=O)[nH]c2ccc(F)c(F)c12 [compound 45] | 120
14 | Cc1c(CC(=O)N[C@H](C)c2ccc(C#N)cc2F)c(=O)[nH]c2ccc(F)c(C#N)c12 [compound 67] | 30
15 | Cc1nc(C#N)cnc1[C@H](C)NC(=O)Cc1cc2cc(F)c(F)cc2[nH]c1=O (single isomer, unassigned) [compound 6] | 300

Tested on: Porcine atria myofibrils (atrial myosin ATPase)
Test: Myofibril ATPase assay, porcine atria myofibrils
Type: biochemical
Settings: Y75 value (no ‡ mark); porcine atria myofibrils
Method in brief: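 Coupled PK-LDH readout, NADH loss at 340 nm, kinetic 75 min. Porcine atria myofibrils, pCa buffer (PIPES/CaCl2/EGTA, pH 7.0). Slopes (mAU/min) normalized to vehicle = 100%, 4-parameter fit; Y75 or Y125 reported.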

Row | Compound | Atrial EC25 [nM]
16 | Cc1c(CC(=O)N[C@H](C)c2cnc(C#N)nc2)c(=O)[nH]c2ccc(F)cc12 [compound 1100] | 770
17 | C[C@H](NC(=O)C(F)(F)c1cc2cc(F)ccc2[nH]c1=O)c1cc(C#N)ccn1 (single isomer, unassigned) [compound 2574] | 100000
18 | Cc1c(CC(=O)N[C@@H](C)c2ccc(C#N)cn2)c(=O)[nH]c2ccc(F)c(F)c12 [compound 46] | 240
19 | Cc1c(CC(=O)N[C@@H](C)c2ccc(F)cc2F)c(=O)[nH]c2ccc(F)c(C(F)(F)F)c12 [compound 96] | 70
20 | Cc1c(CC(=O)N[C@@H](C)c2ccc(C#N)cn2)c(=O)[nH]c2ccc(F)cc12 [compound 1128] | 520
21 | Cc1c(C2(C(=O)N[C@@H]3CCc4cc(C#N)cnc43)CC2)c(=O)[nH]c2ccc(F)cc12 (single isomer, unassigned) [compound 2503] | 100000
22 | Cc1c(CC(=O)N[C@H](C)c2ccc(C#N)cn2)c(=O)[nH]c2cccc(F)c12 [compound 53] | 1930
23 | C[C@H](NC(=O)Cc1cc2ccccc2[nH]c1=O)c1ccc(F)cc1F [compound 137] | 1120
24 | Cc1c(CC(=O)N[C@@H](C)c2ccc(C#N)cn2)c(=O)[nH]c2ccc(F)c(C3CC3)c12 [compound 24] | 50
25 | C[C@H](NC(=O)Cc1cc2c(F)c(F)ccc2[nH]c1=O)c1ncc(C#N)cn1 (single isomer, unassigned) [compound 2072] | 680
26 | C[C@@H](NC(=O)Cc1c(C2CC2)c2c(F)cccc2[nH]c1=O)c1ncc(C#N)cc1F [compound 1143] | 1440
27 | C[C@@H](NC(=O)C(F)(F)c1cc2cc(F)ccc2[nH]c1=O)c1nccc(C#N)n1 (single isomer, unassigned) [compound 2559] | 100000
28 | Cc1c(CC(=O)N[C@H](C)c2ccc(C#N)cn2)c(=O)[nH]c2ccc(F)c(F)c12 [compound 45] | 70
29 | Cc1c(CC(=O)N[C@H](C)c2ccc(C#N)cc2F)c(=O)[nH]c2ccc(F)c(C#N)c12 [compound 67] | 110
30 | Cc1nc(C#N)cnc1[C@H](C)NC(=O)Cc1cc2cc(F)c(F)cc2[nH]c1=O (single isomer, unassigned) [compound 6] | 810

Biological target: T1, Porcine ventricle myofibrils (ventricular myosin ATPase) (Sus scrofa, UniProt P79293)
T1 construct: Myofibrils from porcine cardiac muscle was isolated from the left ventricle of Yucatan minipigs; tissue Exemplar Genetics; host or cells: left ventricle of Yucatan minipigs, myofibrils prepared in house
Test: Myofibril ATPase assay, porcine ventricle myofibrils
Type: biochemical, porcine (Yucatan minipigs)
Settings: Y75 value (no ‡ mark); porcine ventricle myofibrils
Method in brief: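 Left-ventricle myofibrils from Yucatan minipigs were tested with a PK/LDH-coupled system, following NADH loss at 340 nm every 1.5-2 min for 75 min. Slopes were normalized to vehicle wells and fit to a 4-parameter logistic model; values are Y75 (25% ATPase reduction) or Y125 concentrations.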

T1 sequence (P79293 whole entry): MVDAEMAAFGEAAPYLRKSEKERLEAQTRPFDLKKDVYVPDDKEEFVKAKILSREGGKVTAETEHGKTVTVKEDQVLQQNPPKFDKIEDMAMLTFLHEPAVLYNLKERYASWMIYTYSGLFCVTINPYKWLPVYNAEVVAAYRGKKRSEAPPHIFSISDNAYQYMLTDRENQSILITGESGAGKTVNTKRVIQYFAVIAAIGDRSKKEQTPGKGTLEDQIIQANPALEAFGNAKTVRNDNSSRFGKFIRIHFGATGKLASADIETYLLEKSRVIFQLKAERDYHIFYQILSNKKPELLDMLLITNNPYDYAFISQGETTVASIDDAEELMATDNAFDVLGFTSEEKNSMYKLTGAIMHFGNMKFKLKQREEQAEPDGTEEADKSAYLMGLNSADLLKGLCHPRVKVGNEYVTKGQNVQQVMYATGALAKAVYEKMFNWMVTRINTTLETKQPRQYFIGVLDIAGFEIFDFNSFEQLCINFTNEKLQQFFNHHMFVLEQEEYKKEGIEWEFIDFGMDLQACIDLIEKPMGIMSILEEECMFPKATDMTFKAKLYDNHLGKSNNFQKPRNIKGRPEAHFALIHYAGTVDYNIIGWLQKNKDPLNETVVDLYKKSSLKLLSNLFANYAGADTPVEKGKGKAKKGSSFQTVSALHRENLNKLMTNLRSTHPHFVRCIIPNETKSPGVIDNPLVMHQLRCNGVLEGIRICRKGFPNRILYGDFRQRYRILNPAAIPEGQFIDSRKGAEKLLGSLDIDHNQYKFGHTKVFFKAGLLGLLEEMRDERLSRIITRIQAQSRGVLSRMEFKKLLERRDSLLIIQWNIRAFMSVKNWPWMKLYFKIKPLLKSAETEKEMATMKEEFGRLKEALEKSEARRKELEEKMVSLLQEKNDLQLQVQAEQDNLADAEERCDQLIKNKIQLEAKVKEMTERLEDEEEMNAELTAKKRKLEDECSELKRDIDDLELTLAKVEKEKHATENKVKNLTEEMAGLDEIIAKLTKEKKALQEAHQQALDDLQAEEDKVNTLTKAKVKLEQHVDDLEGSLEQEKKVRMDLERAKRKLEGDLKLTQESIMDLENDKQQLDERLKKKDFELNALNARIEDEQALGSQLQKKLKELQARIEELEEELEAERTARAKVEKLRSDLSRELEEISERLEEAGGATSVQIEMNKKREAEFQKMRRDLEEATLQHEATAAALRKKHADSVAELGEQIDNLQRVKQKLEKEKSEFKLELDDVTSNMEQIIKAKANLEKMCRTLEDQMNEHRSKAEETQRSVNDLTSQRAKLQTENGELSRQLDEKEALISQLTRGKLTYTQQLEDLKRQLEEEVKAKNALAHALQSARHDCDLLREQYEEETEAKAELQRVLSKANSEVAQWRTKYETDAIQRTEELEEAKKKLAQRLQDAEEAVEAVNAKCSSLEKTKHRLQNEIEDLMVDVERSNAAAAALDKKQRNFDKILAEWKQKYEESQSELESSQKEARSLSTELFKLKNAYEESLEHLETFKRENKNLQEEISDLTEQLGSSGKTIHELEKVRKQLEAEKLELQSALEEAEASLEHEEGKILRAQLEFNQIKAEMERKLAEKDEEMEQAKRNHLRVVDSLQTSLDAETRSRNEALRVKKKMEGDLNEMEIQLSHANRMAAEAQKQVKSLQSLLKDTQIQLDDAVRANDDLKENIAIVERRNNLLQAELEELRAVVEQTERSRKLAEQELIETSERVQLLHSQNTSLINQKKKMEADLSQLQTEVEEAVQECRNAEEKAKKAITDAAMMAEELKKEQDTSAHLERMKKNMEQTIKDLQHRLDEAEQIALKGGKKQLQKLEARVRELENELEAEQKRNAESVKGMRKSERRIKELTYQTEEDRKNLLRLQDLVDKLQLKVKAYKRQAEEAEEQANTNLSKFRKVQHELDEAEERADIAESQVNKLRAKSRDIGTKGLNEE

Row | Compound | Ventricular EC25 [nM]
31 | Cc1c(CC(=O)N[C@H](C)c2cnc(C#N)nc2)c(=O)[nH]c2ccc(F)cc12 [compound 1100] | 2270
32 | C[C@H](NC(=O)C(F)(F)c1cc2cc(F)ccc2[nH]c1=O)c1cc(C#N)ccn1 (single isomer, unassigned) [compound 2574] | 100000
33 | Cc1c(CC(=O)N[C@@H](C)c2ccc(C#N)cn2)c(=O)[nH]c2ccc(F)c(F)c12 [compound 46] | 120
34 | Cc1c(CC(=O)N[C@@H](C)c2ccc(F)cc2F)c(=O)[nH]c2ccc(F)c(C(F)(F)F)c12 [compound 96] | 130
35 | Cc1c(CC(=O)N[C@@H](C)c2ccc(C#N)cn2)c(=O)[nH]c2ccc(F)cc12 [compound 1128] | 700
36 | Cc1c(C2(C(=O)N[C@@H]3CCc4cc(C#N)cnc43)CC2)c(=O)[nH]c2ccc(F)cc12 (single isomer, unassigned) [compound 2503] | 100000
37 | Cc1c(CC(=O)N[C@H](C)c2ccc(C#N)cn2)c(=O)[nH]c2cccc(F)c12 [compound 53] | 6530
38 | C[C@H](NC(=O)Cc1cc2ccccc2[nH]c1=O)c1ccc(F)cc1F [compound 137] | 3330
39 | Cc1c(CC(=O)N[C@@H](C)c2ccc(C#N)cn2)c(=O)[nH]c2ccc(F)c(C3CC3)c12 [compound 24] | 210
40 | C[C@H](NC(=O)Cc1cc2c(F)c(F)ccc2[nH]c1=O)c1ncc(C#N)cn1 (single isomer, unassigned) [compound 2072] | 11130
41 | C[C@@H](NC(=O)Cc1c(C2CC2)c2c(F)cccc2[nH]c1=O)c1ncc(C#N)cc1F [compound 1143] | 4450
42 | C[C@@H](NC(=O)C(F)(F)c1cc2cc(F)ccc2[nH]c1=O)c1nccc(C#N)n1 (single isomer, unassigned) [compound 2559] | 100000
43 | Cc1c(CC(=O)N[C@H](C)c2ccc(C#N)cn2)c(=O)[nH]c2ccc(F)c(F)c12 [compound 45] | 420
44 | Cc1c(CC(=O)N[C@H](C)c2ccc(C#N)cc2F)c(=O)[nH]c2ccc(F)c(C#N)c12 [compound 67] | 260
45 | Cc1nc(C#N)cnc1[C@H](C)NC(=O)Cc1cc2cc(F)c(F)cc2[nH]c1=O (single isomer, unassigned) [compound 6] | 950
